From patent publication US20170152258A9, “Substituted Pyridopyrazines as Syk Inhibitors” (HUTCHISON MEDIPHARMA LIMITED, priority 2012, published 2017)

Tests used:
Syk kinase = Syk kinase (Homo sapiens, UniProt P43405); experiment: SYK Enzymatic Assay (Z-LYTE Tyr 2 peptide); format: biochemical; details: 8 concentrations 1 μM down to 0.0003 μM
Experimental: Syk kinase assay are performed in vitro using Kit-Tyr 2 Peptide (Invitrogen, Cat. No. PV3191) and in a 384-well assay plate. […] The 384-well assay plate (Corning, Cat. No. 3575) is mixed and incubated at room temperature for 1 hour. 10 μL of the Development Solution (prepared by diluting Development Reagent A (Cat. No. PV3297) to 1/32 with Development Buffer (Cat. No. PV3127)) is then added to each well, mixed and incubated at room temperature for another 1 hour. The reactions are then stopped by adding 10 μL of the Stop Reagent (Invitrogen, Cat. No. PV3094), and the plate is read with Wallac 1420 VICTOR^3 Multilabel Counter (PerkinElmer™) at 445 nm and 520 nm fluorescence. All compounds are tested at 8 concentrations (1 μM down to 0.0003 μM) using a 1:3 serial dilution scheme.

RBL-2H3 cells = experiment: IgE-induced Beta-hexosaminidase secretion in RBL-2H3 cells; format: cell-based; details: Rattus norvegicus, DNP-BSA stimulation
Experimental: For the determination of IgE-induced Beta-hexosaminidase secretion, RBL-2H3 cells (SIBS) are seeded in 96 well plates at 4×10^4 cells per well and incubated in MEM media with 15% FBS and Glutamine ([…]) for 4 hours and sensitized with 0.5 ug/ml of SPE-7 overnight. Cells are washed 3 times with Tyrode's buffer and incubated in the presence or absence of various concentrations of the testing compound for 20 min at 37° C., 5% CO2. Cells are stimulated by adding 10 uL of DNP-BSA solution (150 ng/mL) to each well and incubating for 45 minutes at 37° C., 5% CO2. Then, 45 μL of the supernatant is taken and incubated with 100 μL of 1 mM 4-Nitrophenyl N-acetyl-β-D-glucosaminide (Sigma, Cat. No. N9376), which is diluted in 0.05 M citrate buffer (pH 4.5), for 1.5 hr at 37° C. The reactions are quenched by adding 185 μL of 0.05 M sodium carbonate buffer (pH 10.0). Plates are read at 405 nm on Multiskan (MK 3).

[1] = RBL-2H3, IgE-induced Beta-hexosaminidase secretion

Row | Structure (SMILES) | IC50 (Syk kinase) | IC50 (RBL-2H3 cells; [1]) | IC50 (RBL-2H3 cells; IgE-induced Beta-hexosaminidase secretion)
1 | CC(=O)N1CC(c2ccc(-c3cc4nccnc4c(OC[C@@H]4CN(C(N)=O)CCO4)n3)cc2)C1 [Cmpd 296] | 0.072 µM | > 3.33 µM | 
2 | O=C(C(F)F)N1CCO[C@H](COc2nc(-c3ccc(N4CCNCC4)cc3)cc3nccnc23)C1 [Compound 6, (S)-2,2-difluoro-1-(2-((7-(4-(piperazin-1-yl)phenyl)pyrido[4,3-b]pyrazin-5-yloxy)methyl)morpholino)ethanone] | 0.034 µM |  | 0.26 µM
3 | CS(=O)(=O)N1CCO[C@H](COc2nc(-c3ccc(N4CCOCC4)c(F)c3)cc3nccnc23)C1 [Compound 7] | 0.071 µM | 0.122 µM | 
4 | CN1CCC(c2ccc(-c3cc4nccnc4c(OC[C@@H]4CN(S(C)(=O)=O)CCO4)n3)cc2)CC1 [Compound 8] | 0.048 µM | 0.113 µM | 
5 | O=C(C(F)F)N1CCO[C@H](COc2nc(-c3ccc(C4CCOCC4)cc3)cc3nccnc23)C1 [Compound 9] | 0.098 µM | 0.127 µM | 
6 | CS(=O)(=O)N1CCO[C@H](COc2nc(-c3ccc(C4CCOCC4)cc3)cc3nccnc23)C1 [Compound 11] | 0.052 µM | 0.048 µM | 
7 | CS(=O)(=O)N1CCO[C@H](COc2nc(-c3ccc(N4CCOCC4)cc3)cc3nccnc23)C1 [Compound 12] | 0.024 µM | 0.021 µM | 
8 | CN1CCN(c2ccc(-c3cc4nccnc4c(OC[C@@H]4CN(S(C)(=O)=O)CCO4)n3)cc2)CC1 [Compound 13] | 0.025 µM | 0.04 µM | 
9 | CS(=O)(=O)N1CCO[C@H](COc2nc(-c3ccc(N4CCNCC4)cc3)cc3nccnc23)C1 [Compound 14] | 0.025 µM | 0.631 µM | 
10 | O=C(C(F)F)N1CCO[C@H](COc2nc(-c3ccc(N4CCOCC4)c(F)c3)cc3nccnc23)C1 [Compound 15] | 0.096 µM | 0.102 µM | 
11 | CN1CCN(c2ccc(-c3cc4nccnc4c(OC[C@@H]4CN(C(=O)C(F)F)CCO4)n3)cc2)CC1 [Compound 16] | 0.036 µM | 0.033 µM | 
12 | CCN1CCN(c2ccc(-c3cc4nccnc4c(OC[C@@H]4CN(C(=O)C(F)F)CCO4)n3)cc2)CC1 [Compound 17] | 0.032 µM | 0.056 µM | 
13 | CC1CN(c2ccc(-c3cc4nccnc4c(OC[C@@H]4CN(S(C)(=O)=O)CCO4)n3)cc2)CCO1 (stereo partly shown) [Compound 18] | 0.023 µM | 0.062 µM | 
14 | C[C@@H]1CN(c2ccc(-c3cc4nccnc4c(OC[C@@H]4CN(S(C)(=O)=O)CCO4)n3)cc2)C[C@H](C)O1 [Compound 19] | 0.029 µM | 0.11 µM | 
15 | CS(=O)(=O)N1CCO[C@H](COc2nc(-c3ccc(N4CCC(F)(F)CC4)cc3)cc3nccnc23)C1 [Compound 20] | 0.041 µM | 0.066 µM | 
16 | CS(=O)(=O)N1CCO[C@H](COc2nc(-c3ccc(N4CCCCC4)cc3)cc3nccnc23)C1 [Compound 21] | 0.03 µM | 0.088 µM | 
17 | CC(C)(O)C1CCN(c2ccc(-c3cc4nccnc4c(OC[C@@H]4CN(S(C)(=O)=O)CCO4)n3)cc2)CC1 [Compound 22] | 0.016 µM | 0.073 µM | 
18 | CCS(=O)(=O)N1CCC(c2ccc(-c3cc4nccnc4c(OC[C@@H]4CN(C(C)=O)CCO4)n3)cc2)CC1 [Compound 23] | 0.062 µM | 0.109 µM | 
19 | CC(=O)N1CCO[C@H](COc2nc(-c3ccc(N4CCOCC4)cc3)cc3nccnc23)C1 [Compound 24] | 0.076 µM | 0.127 µM | 
20 | CCS(=O)(=O)N1CCN(c2ccc(-c3cc4nccnc4c(OC[C@@H]4CN(C(C)=O)CCO4)n3)cc2)CC1 [Compound 25] | 0.067 µM | 0.155 µM | 
21 | CS(=O)(=O)N1CCN(c2ccc(-c3cc4nccnc4c(OC[C@@H]4CN(S(C)(=O)=O)CCO4)n3)cc2)CC1 [Compound 26] | 0.018 µM | 0.113 µM | 
22 | CS(=O)(=O)N1CCO[C@H](COc2nc(-c3ccc(N4CCN(CCO)CC4)cc3)cc3nccnc23)C1 [Compound 27] | 0.021 µM | 0.222 µM | 
23 | NS(=O)(=O)N1CCO[C@H](COc2nc(-c3ccc(N4CCCCC4)cc3)cc3nccnc23)C1 [Compound 28] | 0.04 µM | 0.142 µM | 
24 | NS(=O)(=O)N1CCO[C@H](COc2nc(-c3ccc(N4CCC(F)(F)CC4)cc3)cc3nccnc23)C1 [Compound 29] | 0.066 µM | 0.106 µM | 
25 | NS(=O)(=O)N1CCO[C@H](COc2nc(-c3ccc(N4CCCC4)cc3)cc3nccnc23)C1 [Compound 30] | 0.043 µM | 0.277 µM | 
26 | COC1CCN(c2ccc(-c3cc4nccnc4c(OC[C@@H]4CN(S(C)(=O)=O)CCO4)n3)cc2)CC1 [Compound 31] | 0.017 µM | 0.056 µM | 
27 | CN(C)c1ccc(-c2cc3nccnc3c(OC[C@@H]3CN(C(=O)C(F)F)CCO3)n2)cc1F [Compound 32] | 0.06 µM | 0.076 µM | 
28 | CC(=O)N1CCC(c2ccc(-c3cc4nccnc4c(OC[C@@H]4CN(S(C)(=O)=O)CCO4)n3)cc2)CC1 [Compound 33] | 0.027 µM | 0.064 µM | 
29 | CNc1ccc(-c2cc3nccnc3c(OC[C@@H]3CN(S(C)(=O)=O)CCO3)n2)cc1 [Compound 36] | 0.055 µM | 0.097 µM | 
30 | COc1ccc(-c2cc3nccnc3c(OC[C@@H]3CN(S(C)(=O)=O)CCO3)n2)cc1 [Compound 38] | 0.083 µM | 0.278 µM | 

The next lines start with results.

Row | IC50 (Syk kinase) | IC50 (RBL-2H3 cells; [1]) | Structure (SMILES) | IC50 (RBL-2H3 cells; IgE-induced Beta-hexosaminidase secretion)
31 | 0.033 µM | 0.076 µM | Cn1ccc2cc(-c3cc4nccnc4c(OC[C@@H]4CN(S(C)(=O)=O)CCO4)n3)ccc21 [Compound 39] | 
32 | 0.013 µM | 0.037 µM | COc1ccc(-c2cc3nccnc3c(OC[C@@H]3CN(S(C)(=O)=O)CCO3)n2)cc1OC [Compound 43] | 
33 | 0.087 µM | 0.136 µM | COC1CCN(c2ccc(-c3cc4nccnc4c(OC[C@@H]4CN(C(C)=O)CCO4)n3)cc2)CC1 [Compound 48] | 
34 | 0.087 µM | 0.315 µM | CC(=O)N1CCO[C@H](COc2nc(-c3ccc(N4CCN(CCO)CC4)cc3)cc3nccnc23)C1 [Compound 49] | 
35 | 0.064 µM | 0.108 µM | CNc1ccc(-c2cc3nccnc3c(OC[C@@H]3CN(C(=O)[C@H]4CCOC4)CCO3)n2)cc1 [Compound 50] | 
36 | 0.094 µM | 0.159 µM | CNc1ccc(-c2cc3nccnc3c(OC[C@@H]3CN(C(=O)[C@H]4CCCO4)CCO3)n2)cc1 [Compound 51] | 
37 | 0.042 µM | 0.047 µM | CNc1ccc(-c2cc3nccnc3c(OC[C@@H]3CN(S(C)(=O)=O)CCO3)n2)cc1F [Compound 52] | 
38 | 0.032 µM | 0.037 µM | CN(C)c1ccc(-c2cc3nccnc3c(OC[C@@H]3CN(S(C)(=O)=O)CCO3)n2)cc1F [Compound 53] | 
39 | 0.073 µM | 0.257 µM | CC(=O)N1CCC(c2ccc(-c3cc4nccnc4c(OC[C@@H]4CN(C(C)=O)CCO4)n3)cc2)CC1 [Compound 54] | 
40 | 0.065 µM | 0.144 µM | CNS(=O)(=O)N1CCO[C@H](COc2nc(-c3ccc(N4CCOCC4)cc3)cc3nccnc23)C1 [Compound 55] | 
41 | 0.014 µM | 0.082 µM | CS(=O)(=O)N1CCC(c2ccc(-c3cc4nccnc4c(OC[C@@H]4CN(S(C)(=O)=O)CCO4)n3)cc2)CC1 [Compound 57, (S)-4-(methylsulfonyl)-2-((7-(4-(1-(methylsulfonyl)piperidin-4-yl)phenyl)pyrido[4,3-b]pyrazin-5-yloxy)methyl)morpholine] | 
42 | 0.403 µM |  | CC(=O)N1CCO[C@H](COc2nc(-c3ccc(C(O)C(C)C)cc3)cc3nccnc23)C1 (stereo partly shown) [Compound 286] | 
43 | 0.105 µM |  | CC(C)C(O)c1ccc(-c2cc3nccnc3c(OC[C@@H]3CN(S(C)(=O)=O)CCO3)n2)cc1 (stereo partly shown) [Compound 287] | 
44 | 0.115 µM |  | CC(=O)N1CCO[C@H](COc2nc(-c3ccc(C4(C#N)CCC4)cc3)cc3nccnc23)C1 [Compound 289] | 
45 | 0.128 µM |  | CC(=O)N1CC(c2ccc(-c3cc4nccnc4c(OC[C@@H]4CN(C(C)=O)CCO4)n3)cc2)C1 [Compound 295, (S)-1-(2-(((7-(4-(1-acetylazetidin-3-yl)phenyl)pyrido[3,4-b]pyrazin-5-yl)oxy)methyl)morpholino)ethanone] | 
46 | 0.127 µM |  | CC(=O)N1CCO[C@H](COc2nc(-c3ccc(C4(O)CCC4)cc3)cc3nccnc23)C1 [Compound 309] | 
47 | 0.588 µM |  | CN1C[C@@H](COc2nc(-c3ccc(C(C)(C)O)cc3)cc3nccnc23)OCC1=O [Compound 310] | 
48 | 0.104 µM |  | CC(=O)NC(C)(C)c1ccc(-c2cc3nccnc3c(OC[C@@H]3CN(S(C)(=O)=O)CCO3)n2)cc1 [Compound 313] | 
49 | 0.208 µM |  | CC(C)(O)c1ccc(-c2cc3nccnc3c(OCC3OCCNC3=O)n2)cc1 (stereo not shown) [Compound 319] | 
50 | 0.119 µM |  | CS(=O)(=O)N1CCC(c2ccc(-c3cc4nccnc4c(OCC4OCCNC4=O)n3)cc2)CC1 (stereo not shown) [Compound 320] | 
